Source: PubChem BioAssay AID588774 (The Scripps Research Institute Molecular Screening Center, 2011)
Activity calls are given as the source filed them.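 How the source made its calls: active means target enzyme inhibited at least 50% at a set dose, and selective over every off-target enzyme by a set factor; inactive means weaker inhibition or too little selectivity.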

What was measured:
[1] = system: pPAFAH; experiment: competitive ABPP of pPAFAH versus proteome hydrolases – biochemical, gel-based, FP-Rh fluorescence, complex proteome, SAR compounds, selectivity assay for pPAFAH inhibitor project, SAR follow-up (AID 588774); details: anti-targets inhibited, at 10 µM;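 on inhibition: 0% = DMSO-only band intensity and 100% = blank gel background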
[2] = system: ABHD3; experiment: as above; details: at 10 µM, stronger effect = higher value
[3] = system: LYPLA1; experiment: as above; details: stronger effect = higher value
[4] = system: ABHD6; experiment: as above; details: stronger effect = higher value
[5] = system: FAAH; experiment: as above; details: stronger effect = higher value
[6] = target: Platelet-activating factor acetylhydrolase (Mus musculus) (UniProt Q60963); experiment: as above; details: pPAFAH, stronger effect = higher value
Chain of Platelet-activating factor acetylhydrolase (Mus musculus) (Q60963 whole entry, looked up): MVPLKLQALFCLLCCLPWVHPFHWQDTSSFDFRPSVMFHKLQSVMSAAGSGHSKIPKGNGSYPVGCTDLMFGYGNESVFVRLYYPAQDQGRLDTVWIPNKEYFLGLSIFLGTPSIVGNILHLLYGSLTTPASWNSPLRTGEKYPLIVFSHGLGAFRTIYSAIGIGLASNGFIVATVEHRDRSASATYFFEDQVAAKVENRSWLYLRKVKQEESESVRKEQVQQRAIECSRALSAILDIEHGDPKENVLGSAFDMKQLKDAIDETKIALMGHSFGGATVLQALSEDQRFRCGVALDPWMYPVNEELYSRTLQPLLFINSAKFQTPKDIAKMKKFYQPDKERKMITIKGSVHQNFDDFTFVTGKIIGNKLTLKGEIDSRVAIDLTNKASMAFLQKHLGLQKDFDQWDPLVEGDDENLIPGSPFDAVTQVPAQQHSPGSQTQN

[7] = target: ABHD4 (UniProt Q8VD66); experiment: as above; details: stronger effect = higher value
Chain of ABHD4 (Q8VD66 whole entry, looked up): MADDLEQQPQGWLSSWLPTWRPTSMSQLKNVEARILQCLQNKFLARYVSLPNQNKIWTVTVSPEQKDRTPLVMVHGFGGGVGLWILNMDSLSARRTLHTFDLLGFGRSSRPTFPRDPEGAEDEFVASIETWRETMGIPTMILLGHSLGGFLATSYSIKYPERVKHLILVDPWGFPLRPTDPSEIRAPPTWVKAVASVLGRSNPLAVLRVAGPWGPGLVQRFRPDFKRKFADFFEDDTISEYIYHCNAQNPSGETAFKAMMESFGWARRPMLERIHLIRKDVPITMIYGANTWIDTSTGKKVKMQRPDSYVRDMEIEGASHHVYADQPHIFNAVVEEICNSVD

[8] = as above; details: at 10 µM
[9] = target: Monoglyceride lipase (Mus musculus) (UniProt O35678); experiment: as above; details: MAGL, stronger effect = higher value
Chain of Monoglyceride lipase (Mus musculus) (O35678 whole entry, looked up): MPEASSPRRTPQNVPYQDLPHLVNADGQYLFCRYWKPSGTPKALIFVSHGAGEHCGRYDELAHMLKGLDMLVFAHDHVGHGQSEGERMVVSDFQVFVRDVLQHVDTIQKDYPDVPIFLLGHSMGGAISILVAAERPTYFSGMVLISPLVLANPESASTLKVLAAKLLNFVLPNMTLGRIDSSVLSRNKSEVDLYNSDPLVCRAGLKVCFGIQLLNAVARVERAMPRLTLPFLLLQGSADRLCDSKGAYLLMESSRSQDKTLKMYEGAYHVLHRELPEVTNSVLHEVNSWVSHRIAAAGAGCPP

[10] = system: LYPLA2; experiment: as above; details: stronger effect = higher value

Row | anti-target count [1] | inhibition [2] | inhibition ([3]; at 10 µM) | inhibition ([4]; at 10 µM) | inhibition ([5]; at 10 µM) | inhibition ([5]; inhibition, at 0.1 µM) [%] | inhibition ([5]; inhibition, at 1 µM) [%] | inhibition ([6]; at 10 µM) | inhibition ([6]; inhibition, at 0.1 µM) [%] | inhibition ([6]; inhibition, at 1 µM) [%] | inhibition ([7]; at 10 µM) | anti-target count ([8]; ABHD3, anti-targets inhibited) | anti-target count ([8]; ABHD4, anti-targets inhibited) | anti-target count ([8]; ABHD6, anti-targets inhibited) | anti-target count ([8]; FAAH, anti-targets inhibited) | anti-target count ([8]; LYPLA1, anti-targets inhibited) | anti-target count ([8]; LYPLA2, anti-targets inhibited) | anti-target count ([8]; MAGL, anti-targets inhibited) | inhibition ([9]; at 10 µM) | inhibition ([10]; at 10 µM) | SMILES | further results
1 | 2 | 0% (inactive) | 0% (inactive) | 0% (inactive) | 71% (inactive) | 16 | 36 | 100% (inactive) | 47 | 95 | 0% (inactive) | 2 | 2 | 2 | 2 | 2 | 2 | 2 | 64% (inactive) | 0% (inactive) | Cc1cc(N2CCN(C(=O)Oc3ccc([N+](=O)[O-])cc3)CC2)c2ccccc2n1 | inhibition ([9]; inhibition, at 0.1 µM): 23%; inhibition ([9]; inhibition, at 1 µM): 51%
2 | 0 | 0% (inactive) | 0% (inactive) | 0% (inactive) | 0% (inactive) | – | – | 100% | 66 | 95 | 0% (inactive) | 0 | 0 | 0 | 0 | 0 | 0 | 0 | 0% (inactive) | 0% (inactive) | Cc1cc(N2CCN(C(=O)Oc3ccc(-c4ccccc4)cc3)CC2)c2ccccc2n1 | –
3 | 3 | 0% (inactive) | 73% (inactive) | 38% (inactive) | 99% (inactive) | 39 | 79 | 99% | 87 | 87 | 48% (inactive) | 3 | 3 | 3 | 3 | 3 | 3 | 3 | 97% | 24% (inactive) | Cc1cc(N2CCN(C(=O)n3oc4cc(Cl)ccc4c3=O)CC2)c2ccccc2n1 | inhibition ([3]; inhibition, at 1 µM): 13%; inhibition ([4]; inhibition, at 0.1 µM): 19%; inhibition ([4]; inhibition, at 1 µM): 32%; inhibition ([7]; inhibition, at 0.1 µM): 36%; inhibition ([7]; inhibition, at 1 µM): 38%; inhibition ([9]; inhibition, at 0.1 µM): 54%; inhibition ([9]; inhibition, at 1 µM): 73%; inhibition ([10]; inhibition, at 0.1 µM): 3%; inhibition ([10]; inhibition, at 1 µM): 6%
4 | 4 | 0% (inactive) | 50% (inactive) | 53% | 100% | 87 | 100 | 100% | 89 | 91 | 0% (inactive) | 4 | 4 | 4 | 4 | 4 | 4 | 4 | 86% | 0% (inactive) | Cc1cc(N2CCN(C(=O)Oc3noc4cc(Cl)ccc34)CC2)c2ccccc2n1 | inhibition ([3]; inhibition, at 0.1 µM): 20%; inhibition ([3]; inhibition, at 1 µM): 25%; inhibition ([4]; inhibition, at 0.1 µM): 53%; inhibition ([4]; inhibition, at 1 µM): 53%; inhibition ([9]; inhibition, at 0.1 µM): 79%; inhibition ([9]; inhibition, at 1 µM): 83%
5 | 1 | 0% (inactive) | 0% (inactive) | 0% (inactive) | 0% (inactive) | – | – | 93% (inactive) | 46 | 87 | 72% (inactive) | 1 | 1 | 1 | 1 | 1 | 1 | 1 | 0% (inactive) | 0% (inactive) | Cc1cc(N2CCN(C(=O)Oc3ccc(C(F)(F)F)cc3)CC2)c2ccccc2n1 | inhibition ([7]; inhibition, at 0.1 µM): 32%; inhibition ([7]; inhibition, at 1 µM): 39%
6 | 0 | 0% (inactive) | 0% (inactive) | 0% (inactive) | 0% (inactive) | – | – | 56% (inactive) | 2 | 37 | 0% (inactive) | 0 | 0 | 0 | 0 | 0 | 0 | 0 | 0% (inactive) | 0% (inactive) | Cc1cc(N2CCN(C(=O)Oc3ccc(-c4ccc(Br)cc4)cc3)CC2)c2ccccc2n1 | –
7 | 0 | 0% (inactive) | 0% (inactive) | 0% (inactive) | 0% (inactive) | – | – | 95% (inactive) | 2 | 63 | 0% (inactive) | 0 | 0 | 0 | 0 | 0 | 0 | 0 | 0% (inactive) | 0% (inactive) | Cc1cc(N2CCN(C(=O)Oc3ccc(C4CCCCC4)cc3)CC2)c2ccccc2n1 | –
8 | 0 | 0% (inactive) | 0% (inactive) | 0% (inactive) | 0% (inactive) | – | – | 87% (inactive) | 35 | 80 | 0% (inactive) | 0 | 0 | 0 | 0 | 0 | 0 | 0 | 0% (inactive) | 0% (inactive) | Cc1cc(N2CCN(C(=O)Oc3ccc(-n4cccc4)cc3)CC2)c2ccccc2n1 | –
9 | 0 | 0% (inactive) | 0% (inactive) | 0% (inactive) | 0% (inactive) | – | – | 91% (inactive) | 28 | 82 | 27% (inactive) | 0 | 0 | 0 | 0 | 0 | 0 | 0 | 0% (inactive) | 0% (inactive) | Cc1cc(N2CCN(C(=O)Oc3ccc(C4CCCC4)cc3)CC2)c2ccccc2n1 | –
